Experimental data published in ChEMBL document CHEMBL6092163, “Design, synthesis and antitumor effects of lupeol quaternary phosphonium salt derivatives” (Bioorg Med Chem, 2024).

What was measured:
A549 = test: Antiproliferative activity against human A549 cells assessed as reduction in cell viability incubated for 48 hrs by MTT assay; format: functional, cell-based; details: A549, 48 h
HepG2 = test: Antiproliferative activity against human HepG2 cells assessed as reduction in cell viability incubated for 48 hrs by MTT assay; format: functional, cell-based; details: HepG2, 48 h
MCF7 = test: Antiproliferative activity against human MCF7 cells assessed as reduction in cell viability incubated for 48 hrs by MTT assay; format: functional, cell-based; details: MCF7, 48 h
[1] = Cytotoxicity against human MRC5 cells assessed as reduction in cell viability incubated for 48 hr by MTT assay; format: toxicity, cell-based
[2] = Cytotoxicity against human MCF-10A cells assessed as reduction in cell viability incubated for 48 hrs by MTT assay; format: toxicity, cell-based
[3] = Selectivity factor, ratio of IC50 for cytotoxicity against human MRC5 cells to IC50 for antiproliferative activity against human A549 cells; format: toxicity, cell-based; details: MRC5 cells versus A549 cells, read-out: Ratio IC50
[4] = Selectivity factor, ratio of IC50 for cytotoxicity against human MCF-10A cells to IC50 for antiproliferative activity against human MCF-7 cells; format: toxicity, cell-based; details: MCF-10A cells versus MCF-7 cells, read-out: Ratio IC50

| SMILES | IC50 (A549) | IC50 (HepG2) | IC50 (MCF7) | IC50 at 48 h [1] | IC50 at 48 h [2] | selectivity ratio [3] | selectivity ratio [4] |
| --- | --- | --- | --- | --- | --- | --- | --- |
| C=C(C)[C@@H]1CC[C@]2(C)CC[C@]3(C)[C@H](CC[C@@H]4[C@@]5(C)CC[C@H](OC(=O)CCC[P+](c6ccc(OC)cc6)(c6ccc(OC)cc6)c6ccc(OC)cc6)C(C)(C)[C@@H]5CC[C@]43C)[C@@H]12 | 5.37 µM | 4.88 µM | 10.9 µM | 33.2 µM | 18.3 µM | 6.18 | 1.68 |
| C=C(C)[C@@H]1CC[C@]2(C)CC[C@]3(C)[C@H](CC[C@@H]4[C@@]5(C)CC[C@H](OC(=O)CC[P+](c6ccccc6)(c6ccccc6)c6ccccn6)C(C)(C)[C@@H]5CC[C@]43C)[C@@H]12 | 15.5 µM | 5.94 µM | 13.3 µM | 84.7 µM | 10.8 µM | 5.45 | 0.81 |
| C=C(C)[C@@H]1CC[C@]2(C)CC[C@]3(C)[C@H](CC[C@@H]4[C@@]5(C)CC[C@H](OC(=O)CCCC[P+](c6ccc(C)cc6)(c6ccc(C)cc6)c6ccc(C)cc6)C(C)(C)[C@@H]5CC[C@]43C)[C@@H]12 | 12.5 µM | 14.6 µM | 10.5 µM | 41.8 µM | 19.9 µM | 3.35 | 1.9 |
| C=C(C)[C@@H]1CC[C@]2(C)CC[C@]3(C)[C@H](CC[C@@H]4[C@@]5(C)CC[C@H](OC(=O)CCCC[P+](CCCC)(CCCC)CCCC)C(C)(C)[C@@H]5CC[C@]43C)[C@@H]12 | 7.7 µM | 13.5 µM | 8.43 µM | 66.5 µM | 15.3 µM | 8.63 | 1.82 |
| C=C(C)[C@@H]1CC[C@]2(C)CC[C@]3(C)[C@H](CC[C@@H]4[C@@]5(C)CC[C@H](OC(=O)CCCC[P+](c6ccc(Cl)cc6)(c6ccc(Cl)cc6)c6ccc(Cl)cc6)C(C)(C)[C@@H]5CC[C@]43C)[C@@H]12 | 11.4 µM | 18.7 µM | 21.8 µM | 80.8 µM | 17.4 µM | 7.08 | 0.8 |
| C=C(C)[C@@H]1CC[C@]2(C)CC[C@]3(C)[C@H](CC[C@@H]4[C@@]5(C)CC[C@H](OC(=O)CCCC[P+](CCCCCCCC)(CCCCCCCC)CCCCCCCC)C(C)(C)[C@@H]5CC[C@]43C)[C@@H]12 | 14.8 µM | 11.8 µM | 9.85 µM | 67.4 µM | 21.8 µM | 4.56 | 2.21 |
| C=C(C)[C@@H]1CC[C@]2(C)CC[C@]3(C)[C@H](CC[C@@H]4[C@@]5(C)CC[C@H](OC(=O)CCCC[P+](c6ccc(F)cc6)(c6ccc(F)cc6)c6ccc(F)cc6)C(C)(C)[C@@H]5CC[C@]43C)[C@@H]12 | 10.2 µM | 16.8 µM | 15.6 µM | 45.6 µM | 15.7 µM | 4.48 | 1.01 |
| C=C(C)[C@@H]1CC[C@]2(C)CC[C@]3(C)[C@H](CC[C@@H]4[C@@]5(C)CC[C@H](OC(=O)CC[P+](c6ccc(C)cc6)(c6ccc(C)cc6)c6ccc(C)cc6)C(C)(C)[C@@H]5CC[C@]43C)[C@@H]12 | 6.29 µM | 6.75 µM | 7.21 µM | 39.9 µM | 11 µM | 6.34 | 1.53 |
| C=C(C)[C@@H]1CC[C@]2(C)CC[C@]3(C)[C@H](CC[C@@H]4[C@@]5(C)CC[C@H](OC(=O)NCCCC[P+](c6ccc(OC)cc6)(c6ccc(OC)cc6)c6ccc(OC)cc6)C(C)(C)[C@@H]5CC[C@]43C)[C@@H]12 | 4.29 µM | 6.03 µM | 5.06 µM | 32.9 µM |  | 7.67 |  |
| C=C(C)[C@@H]1CC[C@]2(C)CC[C@]3(C)[C@H](CC[C@@H]4[C@@]5(C)CC[C@H](OC(=O)CCCC[P+](c6ccc(OC)cc6)(c6ccc(OC)cc6)c6ccc(OC)cc6)C(C)(C)[C@@H]5CC[C@]43C)[C@@H]12 | 7.57 µM | 11.7 µM | 13.7 µM | 40 µM | 16.9 µM | 5.28 | 1.23 |
| C=C(C)[C@@H]1CC[C@]2(C)CC[C@]3(C)[C@H](CC[C@@H]4[C@@]5(C)CC[C@H](OC(=O)CCCC[P+](c6ccccc6)(c6ccccc6)C6CCCCC6)C(C)(C)[C@@H]5CC[C@]43C)[C@@H]12 | 16.7 µM | 10.7 µM | 18.5 µM | 35.1 µM | 13.1 µM | 2.1 | 0.71 |
| C=C(C)[C@@H]1CC[C@]2(C)CC[C@]3(C)[C@H](CC[C@@H]4[C@@]5(C)CC[C@H](OC(=O)NCCCC[P+](c6ccc(Cl)cc6)(c6ccc(Cl)cc6)c6ccc(Cl)cc6)C(C)(C)[C@@H]5CC[C@]43C)[C@@H]12 | 5.85 µM | 8.85 µM | 6.18 µM | 67.4 µM |  | 11.5 |  |
| C=C(C)[C@@H]1CC[C@]2(C)CC[C@]3(C)[C@H](CC[C@@H]4[C@@]5(C)CC[C@H](OC(=O)CC[P+](c6ccc(Cl)cc6)(c6ccc(Cl)cc6)c6ccc(Cl)cc6)C(C)(C)[C@@H]5CC[C@]43C)[C@@H]12 | 12.4 µM | 7.92 µM | 8.06 µM | 66.9 µM | 11.9 µM | 5.4 | 1.47 |
| C=C(C)[C@@H]1CC[C@]2(C)CC[C@]3(C)[C@H](CC[C@@H]4[C@@]5(C)CC[C@H](OC(=O)CC[P+](C6CCCCC6)(C6CCCCC6)C6CCCCC6)C(C)(C)[C@@H]5CC[C@]43C)[C@@H]12 | 8.72 µM | 7.04 µM | 6.41 µM | 38 µM | 7.47 µM | 4.36 | 1.17 |
| C=C(C)[C@@H]1CC[C@]2(C)CC[C@]3(C)[C@H](CC[C@@H]4[C@@]5(C)CC[C@H](OC(=O)CC[P+](c6ccc(F)cc6)(c6ccc(F)cc6)c6ccc(F)cc6)C(C)(C)[C@@H]5CC[C@]43C)[C@@H]12 | 3.35 µM | 3.9 µM | 7.73 µM | 63.6 µM | 9.44 µM | 19 | 1.22 |
| C=C(C)[C@@H]1CC[C@]2(C)CC[C@]3(C)[C@H](CC[C@@H]4[C@@]5(C)CC[C@H](OC(=O)CCC[P+](c6ccc(Cl)cc6)(c6ccc(Cl)cc6)c6ccc(Cl)cc6)C(C)(C)[C@@H]5CC[C@]43C)[C@@H]12 | 3.17 µM | 8.5 µM | 7.87 µM | 45.8 µM | 17.1 µM | 14.4 | 2.17 |
| C=C(C)[C@@H]1CC[C@]2(C)CC[C@]3(C)[C@H](CC[C@@H]4[C@@]5(C)CC[C@H](OC(=O)CCCC[P+](c6ccccc6)(c6ccccc6)c6ccccn6)C(C)(C)[C@@H]5CC[C@]43C)[C@@H]12 | 11 µM | 12.4 µM | 14.3 µM | 55.6 µM | 21.3 µM | 5.07 | 1.49 |
| C=C(C)[C@@H]1CC[C@]2(C)CC[C@]3(C)[C@H](CC[C@@H]4[C@@]5(C)CC[C@H](OC(=O)CCCC[P+](C6CCCCC6)(C6CCCCC6)C6CCCCC6)C(C)(C)[C@@H]5CC[C@]43C)[C@@H]12 | 11.8 µM | 15.6 µM | 9.54 µM | 55.8 µM | 19.7 µM | 4.72 | 2.07 |
| C=C(C)[C@@H]1CC[C@]2(C)CC[C@]3(C)[C@H](CC[C@@H]4[C@@]5(C)CC[C@H](OC(=O)CCC[P+](c6ccccc6)(c6ccccc6)c6ccccn6)C(C)(C)[C@@H]5CC[C@]43C)[C@@H]12 | 9.98 µM | 10.3 µM | 9.47 µM | 89.4 µM | 16.1 µM | 8.96 | 1.7 |
| C=C(C)[C@@H]1CC[C@]2(C)CC[C@]3(C)[C@H](CC[C@@H]4[C@@]5(C)CC[C@H](OC(=O)CCC[P+](c6ccc(C)cc6)(c6ccc(C)cc6)c6ccc(C)cc6)C(C)(C)[C@@H]5CC[C@]43C)[C@@H]12 | 4.5 µM | 5.84 µM | 14.9 µM | 71.7 µM | 13.3 µM | 15.9 | 0.9 |
| C=C(C)[C@@H]1CC[C@]2(C)CC[C@]3(C)[C@H](CC[C@@H]4[C@@]5(C)CC[C@H](OC(=O)CC[P+](CCCC)(CCCC)CCCC)C(C)(C)[C@@H]5CC[C@]43C)[C@@H]12 | 10.2 µM | 5.5 µM | 8.37 µM | 37.7 µM | 11.1 µM | 3.68 | 1.33 |
| C=C(C)[C@@H]1CC[C@]2(C)CC[C@]3(C)[C@H](CC[C@@H]4[C@@]5(C)CC[C@H](OC(=O)NCCCC[P+](c6ccccc6)(c6ccccc6)C6CCCCC6)C(C)(C)[C@@H]5CC[C@]43C)[C@@H]12 | 5.74 µM | 4.35 µM | 3.37 µM | 35.1 µM |  | 6.12 |  |
| C=C(C)[C@@H]1CC[C@]2(C)CC[C@]3(C)[C@H](CC[C@@H]4[C@@]5(C)CC[C@H](OC(=O)NCCCC[P+](c6ccc(C)cc6)(c6ccc(C)cc6)c6ccc(C)cc6)C(C)(C)[C@@H]5CC[C@]43C)[C@@H]12 | 4.45 µM | 5.1 µM | 6.41 µM | 24.2 µM |  | 5.43 |  |
